For one assay, the system named is Enterobacterales. The assay can be described thus: MIC, broth microdilution, CDC/FDA Antibiotic Resistance Isolate Bank (Example 7, Tables 8, 11, 12). In kind it is cell-based.
Assay [1] has as its system A. baumannii. Nature of the assay: MIC, broth microdilution, CDC/FDA Antibiotic Resistance Isolate Bank (Example 7, Tables 9, 13, 14). The assay is classed as cell-based, Acinetobacter baumannii. For orientation: Dilution methods test growth across graded concentrations, often in twofold steps.
Assay [2] has as its system A. baumannii. Nature of the assay: MIC, broth microdilution, 6 strains (Example 6, Table 7). The assay is classed as cell-based.

In brackets after ≈: the same amount, converted by molar mass.

The term MIC denotes the least concentration at which growth counts as inhibited. Take `C[C@H]1COc2c(N3CCN(C)CC3)c(F)cc3c(=O)c(C(=O)O)cn1c23` [Levoflexacin]: the MIC in the assay with Enterobacterales (Enterobacter aerogenes, KUB No. 5559, AR Bank # 62) is on record as 2 µg/mL (≈ 5.53 µM); against Enterobacterales (Enterobacter aerogenes, KUB No. 5571, AR Bank # 74), 0.12 µg/mL (≈ 0.332 µM); against Enterobacterales (Enterobacter cloacae, KUB No. 5562, AR Bank # 65) it was 0.12 µg/mL (≈ 0.332 µM); in the assay on Enterobacterales (Enterobacter cloacae, KUB No. 5569, AR Bank # 72) it was 0.5 µg/mL (≈ 1.38 µM); in the assay on Enterobacterales (Enterobacter cloacae, KUB No. 5570, AR Bank # 73), 0.25 µg/mL (≈ 0.692 µM); in the assay with Enterobacterales (Enterobacter cloacae, KUB No. 5590, AR Bank # 93) it was 4 µg/mL (≈ 11.1 µM). For the same compound, the MIC is reported as 0.12 µg/mL (≈ 0.332 µM) against Enterobacterales (Escherichia coli, KUB No. 5558, AR Bank # 61); 32 µg/mL (≈ 88.6 µM) against Enterobacterales (Escherichia coli, KUB No. 5564, AR Bank # 67); 0.12 µg/mL (≈ 0.332 µM) against Enterobacterales (Escherichia coli, KUB No. 5566, AR Bank # 69); 0.06 µg/mL (≈ 0.166 µM) with Enterobacterales (Escherichia coli, KUB No. 5574, AR Bank # 77); 32 µg/mL (≈ 88.6 µM) with Enterobacterales (Escherichia coli, KUB No. 5578, AR Bank # 81); 64 µg/mL (≈ 177 µM) in the assay on Enterobacterales (Escherichia coli, KUB No. 5581, AR Bank # 84). Moreover, the MIC in the assay with Enterobacterales (Escherichia coli, KUB No. 5582, AR Bank # 85) is given as 32 µg/mL (≈ 88.6 µM); against Enterobacterales (Escherichia coli, KUB No. 5583, AR Bank # 86), 8 µg/mL (≈ 22.1 µM); against Enterobacterales (Escherichia coli, KUB No. 5586, AR Bank # 89), 0.12 µg/mL (≈ 0.332 µM); against Enterobacterales (Klebsiella oxytoca, KUB No. 5568, AR Bank # 71) it was 0.5 µg/mL (≈ 1.38 µM); with Enterobacterales (Klebsiella ozaenae, KUB No. 5593, AR Bank # 96) it was 32 µg/mL (≈ 88.6 µM); in the assay on Enterobacterales (Klebsiella pneumoniae, KUB No. 5563, AR Bank # 66), 64 µg/mL (≈ 177 µM). Also, the MIC with Enterobacterales (Klebsiella pneumoniae, KUB No. 5565, AR Bank # 68) is given as 64 µg/mL (≈ 177 µM); against Enterobacterales (Klebsiella pneumoniae, KUB No. 5572, AR Bank # 75), over 64 µg/mL; against Enterobacterales (Klebsiella pneumoniae, KUB No. 5573, AR Bank # 76), 1 µg/mL (≈ 2.77 µM); with Enterobacterales (Klebsiella pneumoniae, KUB No. 5576, AR Bank # 79), 64 µg/mL (≈ 177 µM); in the assay with Enterobacterales (Klebsiella pneumoniae, KUB No. 5577, AR Bank # 80), 0.12 µg/mL (≈ 0.332 µM); against Enterobacterales (Klebsiella pneumoniae, KUB No. 5584, AR Bank # 87), over 64 µg/mL. For the same compound, the MIC with Enterobacterales (Klebsiella pneumoniae, KUB No. 5594, AR Bank # 97) is listed as over 64 µg/mL; with Enterobacterales (Klebsiella pneumoniae, KUB No. 5595, AR Bank # 98), 64 µg/mL (≈ 177 µM); in the assay with Enterobacterales (Providencia rettgeri, KUB No. 5579, AR Bank # 82) it was 0.25 µg/mL (≈ 0.692 µM); against Enterobacterales (Serratia marcescens, KUB No. 5588, AR Bank # 91), 0.25 µg/mL (≈ 0.692 µM).

As for `C[C@H]1COc2c(N3CCN(C)CC3)c(F)cc3c(=O)c(C(=O)O)cn1c23` [Levotloxacin], the MIC against A. baumannii [1] (A. baumannii KUB No. 5567, AR Bank #70, OXA-58, OXA-100) turned out to be 4 µg/mL (≈ 11.1 µM); against A. baumannii [1] (A. baumannii KUB No. 5575, AR Bank #78, OXA-71), 32 µg/mL (≈ 88.6 µM); with A. baumannii [1] (A. baumannii KUB No. 5580, AR Bank #83, OXA-23, OXA-69, NDM-1) it was 8 µg/mL (≈ 22.1 µM); against A. baumannii [1] (A. baumannii KUB No. 5585, AR Bank #88, OXA-64, NDM-1), 8 µg/mL (≈ 22.1 µM); against A. baumannii [1] (A. baumannii KUB No. 5598, AR Bank #101, OXA-24, OXA-65) it was 16 µg/mL (≈ 44.3 µM); against A. baumannii [1] (A. baumannii KUB No. 5599, AR Bank #102, OXA-66), 8 µg/mL (≈ 22.1 µM). Also, the MIC in the assay on A. baumannii [1] (A. baumannii KUB No. 5706, AR Bank #273, OXA-23, OXA-66) is reported as 64 µg/mL (≈ 177 µM); with A. baumannii [1] (A. baumannii KUB No. 5707, AR Bank #274, OXA-66, OXA-72), 16 µg/mL (≈ 44.3 µM); against A. baumannii [1] (A. baumannii KUB No. 5708, AR Bank #275, OXA-23, OXA-66), 8 µg/mL (≈ 22.1 µM); in the assay on A. baumannii [1] (A. baumannii KUB No. 5709, AR Bank #276, no carbapenemase genes (-)), 16 µg/mL (≈ 44.3 µM); in the assay on A. baumannii [1] (A. baumannii KUB No. 5710, AR Bank #277, OXA-24, OXA-65), 16 µg/mL (≈ 44.3 µM); against A. baumannii [1] (A. baumannii KUB No. 5711, AR Bank #278, OXA-23, OXA-66), 8 µg/mL (≈ 22.1 µM). Moreover, the minimum inhibitory concentration (MIC) with A. baumannii [1] (A. baumannii KUB No. 5712, AR Bank #279, OXA-23, OXA-66) came out at 8 µg/mL (≈ 22.1 µM); against A. baumannii [1] (A. baumannii KUB No. 5713, AR Bank #280, OXA-66), 16 µg/mL (≈ 44.3 µM); against A. baumannii [1] (A. baumannii KUB No. 5714, AR Bank #281, OXA-82), 8 µg/mL (≈ 22.1 µM); in the assay on A. baumannii [1] (A. baumannii KUB No. 5715, AR Bank #282, OXA-23, OXA-66) it was 8 µg/mL (≈ 22.1 µM); with A. baumannii [1] (A. baumannii KUB No. 5716, AR Bank #283, OXA-23, OXA-66), 16 µg/mL (≈ 44.3 µM); with A. baumannii [1] (A. baumannii KUB No. 5717, AR Bank #284, OXA-24, OXA-65) it was 16 µg/mL (≈ 44.3 µM). Also, in the assay on A. baumannii [1] (A. baumannii KUB No. 5718, AR Bank #285, OXA-24, OXA-65), the MIC is 64 µg/mL (≈ 177 µM).

Turning to Colistin sulfate, the MIC against A. baumannii [2] (A. baumannii strain with AMR gene ADC-25, OXA-23, OXA-66, TEM-ID, Carbapenem-resistant) worked out at 1 µg/mL; against A. baumannii [2] (A. baumannii strain with AMR gene ADC-25, OXA-66, TEM-1D, Carbapenem-susceptible), 2 µg/mL; against A. baumannii [2] (A. baumannii strain with AMR gene ADC-25, XA-23, OXA-66, strA, strB, sul2, TEM-1D, Carbapenem-resistant), 1 µg/mL; against A. baumannii [2] (A. baumannii strain with AMR gene NDM-1, OXA-64, Carbapenem-resistant) it was 1 µg/mL; in the assay on A. baumannii [2] (A. baumannii strain with AMR gene OXA-23, OXA-69, TEM-1D, Carbapenem-resistant), 1 µg/mL; against A. baumannii [2] (A. baumannii strain with AMR gene OXA-24, OXA-65, Carbapenem-resistant) it was 1 µg/mL.

The values above are taken from patent EP4635500A1, “THERAPEUTIC AGENT FOR BACTERIAL INFECTION” (Sumitomo Pharma Co., Ltd., priority 2022, dated 2024).
